Target: T1, hFSP1 (Homo sapiens, UniProt Q9BRQ8)
T1 construct: expressed in transfected cells; host or cells: Gpx4 KO isogenic fibroblasts (Pfa1, mouse) overexpressing hFSP1
T1 sequence (Q9BRQ8 1-373): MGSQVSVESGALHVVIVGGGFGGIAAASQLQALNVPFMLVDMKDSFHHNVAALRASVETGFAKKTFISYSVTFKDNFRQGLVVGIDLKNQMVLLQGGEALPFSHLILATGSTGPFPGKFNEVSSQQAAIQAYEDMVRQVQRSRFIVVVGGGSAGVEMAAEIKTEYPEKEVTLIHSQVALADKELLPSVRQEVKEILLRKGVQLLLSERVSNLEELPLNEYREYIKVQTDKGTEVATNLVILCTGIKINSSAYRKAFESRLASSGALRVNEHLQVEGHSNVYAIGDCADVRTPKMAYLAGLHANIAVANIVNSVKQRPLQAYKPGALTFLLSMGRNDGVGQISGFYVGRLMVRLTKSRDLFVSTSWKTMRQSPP
Experiment: Dose-response of screening hits, cell survival by Aquabluer in hFSP1 GPX4 KO cells
Type: cell-based
Details: FSP1 overexpressing cells lacking GPX4
Method: To identify new small molecule inhibitors that induce ferroptosis in FSP1 overexpressing cells lacking GPX4, hFSP1 GPX4 KO as well as FSP1 GPX4 wild type (WT) isogenic fibroblasts were screened using a subtractive high throughput screening (HTS) approach. As such, both cell lines were plated in parallel and screened against HMGU libraries at a fixed concentration of 10 μM. Cell survival was evaluated using the LIVE/DEAD assay Aquabluer. The percentage (%) of viable cells was determined for both wild type (WT) and knockout (KO) cell lines. Hits were considered as compounds that induce ferroptosis in KO but not in WT cells. Subsequently, positive hits were assayed in a dose-response manner to establish EC50 values of respective compounds (see Table 2).

`CCOc1ccc(CC(=O)Nc2ccc(-n3c(C)nc4ccccc4c3=O)cc2)cc1` [Compound 2] and `COc1ccc(CC(=O)Nc2ccc(-n3c(C)nc4ccccc4c3=O)cc2)cc1` [Compound 4] cannot be ordered by EC50: greater than 1000 nM for the first, greater than 1000 nM for the second.

Going from `COc1cc(C(=O)Nc2ccc(-n3c(C)nc4ccccc4c3=O)cc2)cc(OC)c1OC` [Compound 3] to `COc1cc(C(=O)Nc2cccc(-n3c(C)nc4ccccc4c3=O)c2)cc(OC)c1OC` [Compound 6], the EC50 falls from greater than 1000 nM to less than 1000 nM. The second is the more potent here.

`COc1ccc(CC(=O)Nc2cccc(-n3c(C)nc4ccccc4c3=O)c2)cc1` [Compound 5] and `COc1ccc(CC(=O)Nc2ccc(-n3c(C)nc4ccccc4c3=O)cc2C)cc1` [Compound 25] cannot be ordered by EC50: greater than 1000 nM for the first, greater than 1000 nM for the second.

`COc1ccc(CC(=O)Nc2ccc(-n3c(C)nc4ccccc4c3=O)cc2)cc1Cl` [Compound 7] and `COc1ccc(CC(=O)Nc2ccc(-n3c(C)nc4ccccc4c3=O)cc2)c(Cl)c1` [Compound 31] cannot be ordered by EC50: less than 1000 nM for the first, less than 1000 nM for the second.

First: COc1cccc(CC(=O)Nc2ccc(-n3c(C)nc4ccccc4c3=O)cc2)c1 [Compound 8]
Second: Cc1cccc(CC(=O)Nc2ccc(-n3c(C)nc4ccccc4c3=O)cc2)c1 [Compound 15]
The EC50 of the first is higher: greater than 1000 nM for the first, less than 1000 nM for the second.

`COc1cc(CC(=O)Nc2ccc(-n3c(C)nc4ccccc4c3=O)cc2C)cc(OC)c1OC` [Compound 9] and `COc1ccc(CC(=O)Nc2ccc(-n3c(C)nc4ccccc4c3=O)cc2C)cc1Cl` [Compound 33] cannot be ordered by EC50: less than 1000 nM for the first, less than 1000 nM for the second.

`CCOc1cc(C(=O)Nc2ccc(-n3c(C)nc4ccccc4c3=O)cc2)cc(OCC)c1OCC` [Compound 10] and `COc1cc(CC(=O)Nc2ccc(-n3c(CF)nc4ccccc4c3=O)cc2)cc(OC)c1OC` [Compound 42] cannot be ordered by EC50: less than 1000 nM for the first, less than 1000 nM for the second.

`COc1ccc(CC(=O)Nc2ccc3nc(C)n(-c4ccc(F)cc4)c(=O)c3c2)cc1OC` [Compound 11] and `COc1cc(CC(=O)Nc2ccc(-n3c(C)nc4ccncc4c3=O)cc2)cc(OC)c1OC` [Compound 50] cannot be ordered by EC50: greater than 1000 nM for the first, greater than 1000 nM for the second.

Compared with `CCOc1ccc(CC(=O)Nc2ccc(-n3c(C)nc4ccccc4c3=O)cc2C)cc1` [Compound 12], `Cc1ccc(CC(=O)Nc2ccc(-n3c(C)nc4ccccc4c3=O)cc2C)cc1` [Compound 21] is higher in EC50: less than 1000 nM for the first, greater than 1000 nM for the second. The first is the more potent here.

Compared with `Cc1ccc(CC(=O)Nc2ccc(-n3c(C)nc4ccccc4c3=O)cc2)cc1` [Compound 14], `Cc1nc2ccccc2c(=O)n1-c1ccc(NC(=O)Cc2ccc(F)cc2)cc1` [Compound 17] is higher in EC50: less than 1000 nM for the first, greater than 1000 nM for the second. The first is the more potent here.

`Cc1ccccc1CC(=O)Nc1ccc(-n2c(C)nc3ccccc3c2=O)cc1` [Compound 16] and `Cc1nc2ccccc2c(=O)n1-c1ccc(NC(=O)Cc2ccccc2Cl)cc1` [Compound 20] cannot be ordered by EC50: greater than 1000 nM for the first, greater than 1000 nM for the second.

`Cc1nc2ccccc2c(=O)n1-c1ccc(NC(=O)Cc2ccc(Cl)cc2)cc1` [Compound 18] and `Cc1cc(-n2c(C)nc3ccccc3c2=O)ccc1NC(=O)Cc1ccc(Cl)cc1` [Compound 26] cannot be ordered by EC50: less than 1000 nM for the first, less than 1000 nM for the second.

First: CCC(C(=O)Nc1ccc(-n2c(C)nc3ccccc3c2=O)cc1)c1ccccc1 (stereo not drawn) [Compound 19]
Second: Cc1nc2ccccc2c(=O)n1-c1ccc(NS(=O)(=O)Cc2ccccc2)cc1 [Compound 72]
The EC50 of the first is lower: less than 1000 nM for the first, greater than 1000 nM for the second. The first is the more potent here.

`Cc1cccc(CC(=O)Nc2ccc(-n3c(C)nc4ccccc4c3=O)cc2C)c1` [Compound 22] and `COc1cccc(CC(=O)Nc2ccc(-n3c(C)nc4ccccc4c3=O)cc2C)c1` [Compound 28] cannot be ordered by EC50: greater than 1000 nM for the first, greater than 1000 nM for the second.

`Cc1ccccc1CC(=O)Nc1ccc(-n2c(C)nc3ccccc3c2=O)cc1C` [Compound 23] and `Cc1cc(-n2c(C)nc3ccccc3c2=O)ccc1NC(=O)Cc1ccccc1F` [Compound 29] cannot be ordered by EC50: greater than 1000 nM for the first, greater than 1000 nM for the second.

First: Cc1cc(-n2c(C)nc3ccccc3c2=O)ccc1NC(=O)Cc1ccc(F)cc1 [Compound 24]
Second: Cc1cc(-n2c(C)nc3ccccc3c2=O)ccc1NC(=O)Cc1c(F)cccc1Cl [Compound 32]
The EC50 of the first is higher: greater than 1000 nM for the first, less than 1000 nM for the second.

`Cc1nc2ccccc2c(=O)n1-c1ccc(NC(=O)Cc2c(F)cccc2Cl)cc1` [Compound 27] and `Cc1nc2cc(F)c(F)cc2c(=O)n1-c1ccc(NC(=O)Cc2ccccc2)cc1` [Compound 82] cannot be ordered by EC50: less than 1000 nM for the first, less than 1000 nM for the second.

Going from `Cc1cc(-n2c(C)nc3ccccc3c2=O)ccc1NC(=O)Cc1ccccc1Cl` [Compound 30] to `COc1ccc(CC(=O)Nc2ccc(-n3c(C)nc4ccccc4c3=O)cc2C)c(Cl)c1` [Compound 34], the EC50 falls from greater than 1000 nM to less than 1000 nM.

Going from `COc1cc(CC(=O)Nc2ccc(-n3c(C(F)(F)F)nc4ccccc4c3=O)cc2)cc(OC)c1OC` [Compound 40] to `COc1cc(CC(=O)Nc2ccc(-n3c(C(F)F)nc4ccccc4c3=O)cc2)cc(OC)c1OC` [Compound 41], the EC50 rises from less than 1000 nM to greater than 1000 nM. The first is the more potent here.

Compared with `COc1cc(CC(=O)Nc2ccc(-n3c(C)nc4cc(F)c(F)cc4c3=O)cc2)cc(OC)c1OC` [Compound 46], `COc1cc(CC(=O)Nc2ccc(-n3c(C)nc4cnccc4c3=O)cc2)cc(OC)c1OC` [Compound 49] is higher in EC50: less than 100 nM for the first, greater than 1000 nM for the second. The first is the more potent here.

`COc1cc(CC(=O)Nc2cnc(-n3c(C)nc4ccccc4c3=O)cn2)cc(OC)c1OC` [Compound 63] and `COc1cc(CC(=O)Nc2ccc(-n3c(CO)nc4ccccc4c3=O)cc2)cc(OC)c1OC` [Compound 71] cannot be ordered by EC50: greater than 1000 nM for the first, greater than 1000 nM for the second.

`Cc1nc2ccccc2c(=O)n1-c1ccc(NC(=O)Cc2ccc3c(c2)CCC3)cc1` [Compound 64] and `Cc1nc2cc(F)c(F)cc2c(=O)n1-c1ccc(NC(=O)Cc2ccc3c(c2)CCC3)cc1` [Compound 77] cannot be ordered by EC50: less than 100 nM for the first, less than 100 nM for the second.

Compared with `COc1cc(CC(=O)Nc2ccc(-n3c(C)nc4sccc4c3=O)cc2)cc(OC)c1OC` [Compound 69], `Cc1cc(CC(=O)Nc2ccc(-n3c(C)nc4cc(F)c(F)cc4c3=O)cc2)cc(C)n1` [Compound 85] is higher in EC50: less than 1000 nM for the first, greater than 1000 nM for the second. The first is the more potent here.

`Cc1nc2ccccc2c(=O)n1-c1ccc(N(C)S(=O)(=O)Cc2ccccc2)cc1` [Compound 73] and `Cc1nc2cc(F)c(F)cc2c(=O)n1-c1ccc(NC(=O)Cc2cccnc2)cc1` [Compound 84] cannot be ordered by EC50: greater than 1000 nM for the first, greater than 1000 nM for the second.

`Cc1nc2cc(F)c(F)cc2c(=O)n1-c1ccc(NC(=O)Cc2ccc(C(F)(F)F)cc2)cc1` [Compound 74] and `Cc1nc2cc(F)c(F)cc2c(=O)n1-c1ccc(NC(=O)Cc2cc(C(F)(F)F)cc(C(F)(F)F)c2)cc1` [Compound 86] cannot be ordered by EC50: less than 1000 nM for the first, less than 100 nM for the second.

`Cc1cc(CC(=O)Nc2ccc(-n3c(C)nc4cc(F)c(F)cc4c3=O)cc2)cc(C)c1C` [Compound 75] and `Cc1nc2cc(F)c(F)cc2c(=O)n1-c1ccc(NC(=O)Cc2cc(F)c(F)c(F)c2)cc1` [Compound 76] cannot be ordered by EC50: less than 100 nM for the first, less than 1000 nM for the second.

`Cc1nc2cc(F)c(F)cc2c(=O)n1-c1ccc(NC(=O)Cc2ccccn2)cc1` [Compound 83] showed an EC50 greater than 1000 nM.

System: not listed separately
Experiment: Microsomal stability, mouse liver microsomes
Type: in vitro ADME
Details: Balb/c, pH 7.4, 0.42 mg microsomal protein per ml, 37° C., five time points over 40 minutes
Method: (§1) The objective of this study was to determine metabolic stability of 4 test articles and reference compounds in human and mouse liver microsomes at five time points over 40 minutes using HPLC-MS. Metabolic stability is defined as the percentage of parent compound lost over time in the presence of a metabolically active test system.
(§2) Microsomal incubations were carried out in 96-well plates in 5 aliquots of 30 μL each (one for each time point). Liver microsomal incubation medium comprised of phosphate buffer (100 mM, pH 7.4), MgCl2 (3.3 mM), NADPH (3 mM), glucose-6-phosphate (5.3 mM), glucose-6-phosphate dehydrogenase (0.67 units/ml) with 0.42 mg of liver microsomal protein per ml. In the control reactions, the NADPH-cofactor system was substituted with phosphate buffer. Test compounds (2 μM, final solvent concentration 1.6%) were incubated with microsomes at 37° C., shaking at 100 rpm. Five time points over 40 minutes were analyzed. The reactions were stopped by adding 5 volumes of acetonitrile with internal standard to incubation aliquots, followed by protein sedimentation by centrifuging at 5500 rpm for 5 minutes. Each reaction was performed in duplicates. Supernatants were analyzed using the HPLC system coupled with a tandem mass spectrometer.
(§3) The elimination constant (kel), half-life (t1,2), and intrinsic clearance (Clint) were determined in a plot of In(AUC) versus time, using linear regression analysis:^1

Going from `Cc1nc2cc(F)c(F)cc2c(=O)n1-c1ccc(NC(=O)Cc2ccc(C(F)(F)F)cc2)cc1` [Compound 74] to `Cc1nc2cc(F)c(F)cc2c(=O)n1-c1ccc(NC(=O)Cc2ccccc2)cc1` [Compound 82], the microsomal CLint at 2 μM rises from 7 µL/min/mg to 15 µL/min/mg (2.1-fold).

System: not listed separately
Experiment: Microsomal stability, human liver microsomes
Type: in vitro ADME
Details: pH 7.4, 0.42 mg microsomal protein per ml, 37° C., five time points over 40 minutes
Method: as §1, §2, §3

Compared with `Cc1nc2cc(F)c(F)cc2c(=O)n1-c1ccc(NC(=O)Cc2ccc(C(F)(F)F)cc2)cc1` [Compound 74], `Cc1nc2cc(F)c(F)cc2c(=O)n1-c1ccc(NC(=O)Cc2ccccc2)cc1` [Compound 82] is 1.8-fold lower in microsomal CLint at 2 μM: 7 µL/min/mg for the first, 4 µL/min/mg for the second.
